Data as given in patent US20220274979A1 (Bayer Pharma Aktiengesellschaft, priority 2018, published 2022).

Target: T1, Epidermal Growth Factor Receptor (EGFR) (Homo sapiens, UniProt P00533)
T1 construct: purchased Sigma-Aldrich E3641
Assay: EGFR kinase assay (TR-FRET)
Assay type: biochemical
Settings: 10 μM ATP; read-out: EGFR kinase inhibition IC50
Description: EGFR inhibitory activity of compounds of the present invention was quantified employing the TR-FRET based EGFR assay as described in the following paragraphs.
Epidermal Growth Factor Receptor (EGFR) affinity purified from human carcinoma A431 cells (Sigma-Aldrich, # E3641) was used as kinase. As substrate for the kinase reaction the biotinylated peptide biotin-Ahx-[…] (SEQ ID NO: 8, C-terminus in amid form) was used which can be purchased e.g. form the company Biosyntan GmbH (Berlin-Buch, Germany).
For the assay 50 nL of a 100 fold concentrated solution of the test compound in DMSO was pipetted into a black low volume 384 well microtiter plate (Greiner Bio-One, Frickenhausen, Germany), 2 μL of a solution of EGFR in aqueous assay buffer [50 mM Hepes/HCl pH 7.0, 1 mM MgCl2, 5 mM MnCl2, 0.5 mM activated sodium ortho-vanadate, 0.005% (v/v) Tween-20]were added and the mixture was incubated for […] at 22° C. to allow pre-binding of the test compounds to the enzyme before the start of the kinase reaction. Then the kinase reaction was started by the addition of 3 μL of a solution of adenosine-tri-phosphate (ATP, 16.7 μM=>final conc. in the 5 μL assay volume is 10 μM) and substrate (1.67 μM =>final conc. in the 5 μL assay volume is 1μM) in assay buffer and the resulting mixture was incubated for a reaction time of […] at 22° C. The concentration of EGFR was adjusted depending of the activity of the enzyme lot and was chosen appropriate to have the assay in the linear range, typical concentration were about 3 U/ml. The reaction was stopped by the addition of 5 μl of a solution of HTRF detection reagents (0.1 μM streptavidine-XL665 [Cis Biointernational]and 1 nM PT66-Tb-Cryptate, an terbium-cryptate labelled anti-phospho-tyrosine antibody from Cis Biointernational [instead of the PT66-Tb-cryptate PT66-Eu-Chelate from Perkin Elmer can also be used]) in an aqueous EDTA-solution (80 mM EDTA, 0.2% (w/v) bovine serum albumin in 50 mM HEPES pH 7.5).
The resulting mixture was incubated 1 h at 22° C. to allow the binding of the biotinylated phosphorylated peptide to the streptavidine-XL665 and the PT66-Eu-Chelate. Subsequently the amount of phosphorylated substrate was evaluated by measurement of the resonance energy transfer from the PT66-Tb-Cryptate to the streptavidine-XL665. Therefore, the fluorescence emissions at 620 nm and 665 nm after excitation at 337 nm were measured in a HTRF reader, e.g. a Pherastar (BMG Labtechnologies, Offenburg, Germany) or a Viewlux (Perkin-Elmer). The ratio of the emissions at 665 nm and at […] was taken as the measure for the amount of phosphorylated substrate.

T1 sequence (P00533 25-1210): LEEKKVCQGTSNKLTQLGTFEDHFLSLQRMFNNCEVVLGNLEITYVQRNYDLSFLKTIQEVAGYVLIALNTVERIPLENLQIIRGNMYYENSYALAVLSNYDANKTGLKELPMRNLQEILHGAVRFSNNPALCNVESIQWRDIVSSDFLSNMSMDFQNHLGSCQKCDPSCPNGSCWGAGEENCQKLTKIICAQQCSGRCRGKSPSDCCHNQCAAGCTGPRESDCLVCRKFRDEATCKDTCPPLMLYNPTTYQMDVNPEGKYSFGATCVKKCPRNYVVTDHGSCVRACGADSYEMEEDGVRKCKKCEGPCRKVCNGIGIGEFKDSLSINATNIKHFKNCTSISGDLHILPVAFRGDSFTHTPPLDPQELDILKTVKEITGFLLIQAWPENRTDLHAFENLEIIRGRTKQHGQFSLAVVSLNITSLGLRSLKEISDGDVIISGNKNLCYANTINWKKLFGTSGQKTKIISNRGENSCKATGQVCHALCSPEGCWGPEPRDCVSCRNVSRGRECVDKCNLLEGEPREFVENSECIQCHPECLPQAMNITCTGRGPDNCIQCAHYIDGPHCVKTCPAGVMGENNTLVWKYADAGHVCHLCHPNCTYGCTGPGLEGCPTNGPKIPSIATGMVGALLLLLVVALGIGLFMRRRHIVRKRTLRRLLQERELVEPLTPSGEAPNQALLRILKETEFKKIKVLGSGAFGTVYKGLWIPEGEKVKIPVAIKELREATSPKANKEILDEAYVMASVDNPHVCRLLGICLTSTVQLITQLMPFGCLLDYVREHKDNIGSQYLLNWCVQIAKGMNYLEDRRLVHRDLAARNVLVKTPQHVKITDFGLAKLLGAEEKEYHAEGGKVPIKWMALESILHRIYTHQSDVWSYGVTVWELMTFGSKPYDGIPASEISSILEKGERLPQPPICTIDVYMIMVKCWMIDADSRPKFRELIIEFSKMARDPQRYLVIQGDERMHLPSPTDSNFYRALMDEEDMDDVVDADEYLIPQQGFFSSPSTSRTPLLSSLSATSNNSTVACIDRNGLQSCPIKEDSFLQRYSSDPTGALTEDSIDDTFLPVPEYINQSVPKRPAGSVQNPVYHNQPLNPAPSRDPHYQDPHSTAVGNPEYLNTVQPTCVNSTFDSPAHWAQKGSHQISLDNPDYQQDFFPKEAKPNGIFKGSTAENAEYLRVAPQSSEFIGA

SMILES | IC50 [µM]
CC(=O)N[C@H]1CCN(c2cc3c(NC(C)c4ccc(-c5ccccc5CN(C)C)s4)nc(C)nc3cn2)C1 (single isomer, unassigned) [Example 81] | > 20
CC(=O)N[C@H]1CCN(c2cc3c(NC(C)c4ccc(-c5ccccc5CN(C)C)s4)nc(C)nc3cn2)C1 (single isomer, unassigned) [Example 82] | > 20
CC(=O)N[C@@H]1CCN(c2cc3c(NC(C)c4ccc(-c5ccccc5CN(C)C)s4)nc(C)nc3cn2)C1 (single isomer, unassigned) [Example 79] | > 20
CC(=O)N[C@@H]1CCN(c2cc3c(NC(C)c4ccc(-c5ccccc5CN(C)C)s4)nc(C)nc3cn2)C1 (single isomer, unassigned) [Example 80] | > 20
